Reference: EP0330992A2, “Novel cyclobutane Derivatives, processes for their preparation and pharmaceutical compositions comprising them” (Nippon Kayaku Kabushiki Kaisha, priority 1988, dated 1989)
Values after ≈ are worked out from the molar mass of the structure shown.

Columns and labels:
Type in all cases: cell-based
[1] = test system: human cytomegalovirus (HCMV); assay: Anticytomegaloviral plaque formation inhibition in human fetal fibroblast (Test Example 2, Method 2); settings: Human betaherpesvirus 5, 240 h, AO169 strain, 10 days, read-out: IC₅₀ HCMV
Experimental: An activity against human cytomegalovirus (HCMV) which was DNA virus was examined by the following method.
Anticytomegaloviral activity was determined in terms of 50% inhibitory concentration (IC₅₀) by infecting 35 mm dish having a single layer of human fetal fibroblast with 100 PFU (plaque forming unit) of cytomegalovirus (AO169 strain), adsorbing for an hour, laying thereon a medium containing the compound of each concentration supplemented with 0.5% agarose and 2% fetal calf serum, culturing at 37°C for 10 days in a 5% (v/v) carbon dioxide gas incubator and measuring formation of plaque.

[2] = test system: herpes simplex virus type 1 (HSV-I); assay: Plaque formation inhibition in Vero cells (Test Example 1, Method 1); settings: Human alphaherpesvirus 1, 48 hours, read-out: IC₅₀ HSV-1
Experimental: (§1) Antiviral activity against herpes simplex virus type 1 (HSV-I) and herpes simplex virus type 2 (HSV-II) which were DNA viruses was examined by the following methods.
(§2) A 6 well multiplate bearing a single layr of Vero cells (derived from African green monkey kidney cell) was infected with 100-150 PFU (plaque forming unit) of virus. After (infection) at 37°C for an hour, agar medium (Eagle's MEM medium supplemented with 1.5% agar) containing a sample of each concentration was put on the single layer followed by culturing at 37°C for 48 hours in a 5% (v/v) carbon dioxide incubator. Thereafter, formation of plaque was measured to determine 50% inhibitory concentration (IC₅₀).

[3] = test system: human uterine cervical cancer HeLa S₃; assay: Growth inhibition of HeLa S3 cells, Methylene Blue staining (Test Example 5, Method 5); settings: 50% growth inhibitory concentration, 72 hours, read-out: IC₅₀ HeLaS₃
Experimental: Anticancer activity against human uterine cervical cancer HeLa S₃, mouse leukemia L1210 and P388 cells was examined by the following method. HeLa S₃ cells were prepared in a concentration of 7.5 x 10³ cells/ml and inoculated on a 96 well flat bottom plate by 0.2 ml/well each. After culturing at 37°C for 24 hours in a 5% CO₂ incubator, 10 µl of the compound was added thereto followed by culturing for 72 hours. After culturing, the culture medium of each well was withdrawn and fixed with methanol. Then, 0.1 ml/well each of 0.05% Methylene Blue/10 mM-Tris-HCl (pH 8.5) solution was added to stain at room temperature for 30 minutes. After withdrawing the dyeing solution from each well using an aspirator, the well was washed 3 times with pure water. After adding 3% HCl in a ratio of 0.2 ml/well, the well was sealed and allowed to stand at room temperature for about 24 hours and the dye was then extracted from the cells. Absorbance of each well at 660 nm was measured with Dynatec microplate reader. The growth inhibition rate treated wells to the control wells were calculated according to the equation below and 50% growth inhibitory concentration (IC₅₀, µg/ml) was determined by the Litchfield method. Growth inhibition rate (%) = (1 - A₁/A₀) x 100 wherein A₁ = Absorbance of the treated group A₀ = Absorbance of the control group

[4] = test system: mouse leukemia P388 cells; assay: Growth inhibition of P388 cells, cell count (Test Example 5, Method 6); settings: 50% growth inhibitory concentration, 48 hours, read-out: IC₅₀ P338
Experimental: (§3) Anticancer activity against human uterine cervical cancer HeLa S₃, mouse leukemia L1210 and P388 cells was examined by the following method. P388 and L1210 cells were inoculated on a 24 well plate and the compound was added thereto followed by incubation at 37°C for 48 hours in 5% CO₂. The number of cells after the incubation was counted with a Caulter counter. The growth inhibition rate of the treated group to the control group was calculated according to the equation below and 50% growth inhibitory concentration (IC₅₀, µg/ml) was determined by the Litchfield method. Growth inhibition rate (%) = [1 - (NT-N₀)/(Nc-N₀)] x 100 wherein NT = cell count of the treated group N₀ = cell count at the onset of incubation Nc = cell count of the control group

[5] = test system: mouse leukemia L1210 cells; assay: Growth inhibition of L1210 cells, cell count (Test Example 5, Method 6); settings: 50% growth inhibitory concentration, 48 hours, read-out: IC₅₀ L1210
Experimental: as §3

[6] = test system: AIDS virus (HIV); assay: Anti-HIV activity in MT-4 cells, viral antigen by fluorescent antibody method (Test Example 4, Method 4); settings: Human immunodeficiency virus 1, MT4, 96 h, read-out: IC₅₀ HIV
Experimental: Activity against AIDS virus (HIV) which was RNA virus was examined by the following method.
In an anti-HIV (human immunodeficiency virus) active 24 well tray were charged about 50,000/ml of MT-4 cells. Further […] of a solution containing a definite amount of the compound of this invention was added thereto. After culturing at 37°C for 2 hours in a 5% (v/v) carbon dioxide gas incubator, 10³-10⁴ infection units of HIV were added thereto. After culturing for 4 days, a part of the culture solution was smeared on a slide glass and fixed with acetone. Then, occurrence of viral antigen was observed by fluorescent antibody method.
As primary antibody in the fluorescent antibody method, serum from the patient with AIDS was used and FITC-labeled anti-human IgG was used as secondary antibody.

[7] = test system: herpes simplex virus type 2 (HSV-II); assay: Plaque formation inhibition in Vero cells (Test Example 1, Method 1); settings: Human alphaherpesvirus 2, 48 hours, read-out: IC₅₀ HSV-2
Experimental: as §1, §2

[8] = test system: hepatitis B virus (HBV); assay: Hepatitis B virus DNA in liver cell line HB611, Southern method (Test Example 3, Method 3); settings: 360 h, HB611 cells, 15 days, HBV DNA by Southern method, read-out: IC₅₀ HBV
Experimental: Activity against hepatitis B virus (HBV) which was DNA virus was examined by the following method.
Incubated liver cell line HB611 (Proc. Natl. Acad. Sci. USA, 84 (1987), 444) capable of producing and releasing activated hepatitis B virus was cultured in modified Eagle's medium (GIBCO) at 37°C in 5% CO₂ in the presence 10% fetal calf serum, 200 µg/ml of G418 and 100 U/ml each of penicillin and streptomycin. The culture was inoculated on a 6 well plate in 5 x 10⁴ cells/well (35 mm). When 50% confluent state was achieved 1 or 2 days after, a definite quantity of this compound was added and the mixture was cultured. While exchanging with a medium containing the compound in the same concentration every 3 other days, incubation was continued for 15 days. Thereafter the medium was removed. The cells were treated with 0.5 ml of lysis buffer (10 mM Tris HCl, pH 7.8/5 mM Na₂EDTA, 1% SDS/0.1 mg/ml Pronase K) at 37°C for an hour. The resulting DNA was treated with RNase and purified by treatment with phenol and chloroform and then precipitation with ethanol.
Then, 5 µg of DNA was treated with Hind III and DNA pattern was analyzed by the Southern method using as a probe ³²P-labeled hepatitis B virus DNA.

IC50 [2] [µg/mL]	SMILES	IC50 [1] [µg/mL]	IC50 [3] [µg/mL]	IC50 [4] [µg/mL]	IC50 [5] [µg/mL]	IC50 [6] [µg/mL]	IC50 [7] [µg/mL]	IC50 [8] [µg/mL]
–	O=c1[nH]cnc2c1ncn2[C@@H]1C[C@H](CO)[C@H]1O (racemic) [Compound 4-2, (±)-9-[(1β,2α,3β)-2-hydroxy-3-hydroxymethylcyclobutan-1-yl]hypoxanthine]	2.8 (≈ 11.9 µM)	–	–	–	–	–	–
8.5 (≈ 31.5 µM)	Nc1nc(Cl)c2ncn([C@@H]3C[C@H](CO)[C@H]3O)c2n1 (racemic) [Compound 4-3, (±)-2-amino-6-chloro-9-[(1β,2α,3β)-2-hydroxy-3-hydroxymethylcyclobutan-1-yl]purine]	3.3 (≈ 12.2 µM)	66 (≈ 245 µM)	12 (≈ 44.5 µM)	8 (≈ 29.7 µM)	–	–	–
2.2 (≈ 8.79 µM)	Nc1nc(N)c2ncn([C@@H]3C[C@H](CO)[C@H]3O)c2n1 (racemic) [Compound 4-4, (±)-2,6-diamino-9-[(1β,2α,3β)-2-hydroxy-3-hydroxymethylcyclobutan-1-yl]purine]	0.69 (≈ 2.76 µM)	21 (≈ 83.9 µM)	3.4 (≈ 13.6 µM)	2.4 (≈ 9.59 µM)	3 (≈ 12 µM)	–	–
4 (≈ 17 µM)	Nc1ncnc2c1ncn2[C@@H]1C[C@H](CO)[C@H]1O (racemic) [Compound 7, (±)-9-[(1β,2α,3β)-2-hydroxy-3-hydroxymethylcyclobutan-1-yl]adenine]	0.45 (≈ 1.91 µM)	6.97 (≈ 29.6 µM)	1.64 (≈ 6.97 µM)	1.84 (≈ 7.82 µM)	–	–	–
–	[N-]=[N+]=N[C@@H]1[C@@H](CO)C[C@H]1n1cc(F)c(=O)[nH]c1=O (racemic) [Compound 14, (±)-1-[(1β,2α,3β)-2-azido-3-hydroxymethylcyclobutan-1-yl]-5-fluoro-2,4(1H,3H)-pyrimidinedione]	20 (≈ 78.4 µM)	–	–	–	–	–	32 (≈ 125 µM)
–	Cc1cn([C@@H]2C[C@H](CO)[C@H]2N)c(=O)[nH]c1=O (racemic) [Compound 17, (±)-1-[(1β,2α,3β)-2-amino-3-hydroxymethylcyclobutan-1-yl]-5-methyl-2,4(1H,3H)-pyrimidinedione]	–	–	–	–	–	–	35 (≈ 155 µM)
–	Nc1ncnc2c1ncn2[C@H]1C[C@@H](CO)C1 [Compound 2-1, 9-[(1β,3β)-3-hydroxymethylcyclobutan-1-yl]adenine]	–	100 (≈ 456 µM)	34.1 (≈ 156 µM)	63.1 (≈ 288 µM)	0.3 (≈ 1.37 µM)	–	2 (≈ 9.12 µM)

SMILES	IC50 [2] [µg/mL]	IC50 [1] [µg/mL]	IC50 [3] [µg/mL]	IC50 [4] [µg/mL]	IC50 [5] [µg/mL]	IC50 [6] [µg/mL]	IC50 [7] [µg/mL]	IC50 [8] [µg/mL]
Nc1nc2c(ncn2[C@@H]2C[C@H](CO)[C@H]2O)c(=O)[nH]1 (racemic) [Compound 9, (±)-9-[(1β,2α,3β)-2-hydroxy-3-hydroxymethylcyclobutan-1-yl]guanine]	0.3 (≈ 1.19 µM)	0.95 (≈ 3.78 µM)	10.9 (≈ 43.4 µM)	2.57 (≈ 10.2 µM)	2.56 (≈ 10.2 µM)	–	0.31 (≈ 1.23 µM)	–
Nc1nc2c(ncn2[C@H]2C[C@@H](CO)C2)c(=O)[nH]1 [Compound 2-2, 9-[(1β,3β)-3-hydroxymethylcyclobutan-1-yl]guanine]	1.6 (≈ 6.8 µM)	2.6 (≈ 11.1 µM)	30 (≈ 128 µM)	11.5 (≈ 48.9 µM)	23.1 (≈ 98.2 µM)	10 (≈ 42.5 µM)	3.6 (≈ 15.3 µM)	–
